Columns and labels:
[1] = Inhibition of NS5A in HCV genotype 2b assessed as replicon RNA levels by real time PCR based cell based assay; design: species or system Hepatitis C virus subtype 2b; details: Hepatitis C virus
[2] = Inhibition of NS5A in HCV genotype 3a assessed as replicon RNA levels by real time PCR based cell based assay; design: species or system Hepatitis C virus subtype 3a; details: Hepatitis C virus
[3] = Oral bioavailability in Sprague-Dawley rat at 10 mg/kg; assay type: ADME, organism-based; details: in vivo
[4] = Half life in Sprague-Dawley rat at 10 mg/kg po or 2 mg/kg iv; assay type: ADME, organism-based; details: in vivo
[5] = Inhibition of NS5A in HCV genotype 1a assessed as replicon RNA levels by real time PCR based cell based assay; design: species or system Hepatitis C virus subtype 1a; details: Hepatitis C virus
[6] = Cmax in Sprague-Dawley rat at 10 mg/kg, po; assay type: ADME, organism-based; design: dose 10 mg/kg, route oral; details: in vivo
[7] = Clearance in Sprague-Dawley rat at 10 mg/kg po or 2 mg/kg iv; assay type: ADME, organism-based; details: in vivo
[8] = AUC in Sprague-Dawley rat at 10 mg/kg, po; assay type: ADME, organism-based; details: in vivo
[9] = Inhibition of NS5A in HCV genotype 4a assessed as replicon RNA levels by real time PCR based cell based assay; design: species or system Hepatitis C virus subtype 4a; details: Hepatitis C virus
[10] = Inhibition of NS5A in HCV genotype 1b assessed as replicon RNA levels by real time PCR based cell based assay; design: species or system Hepatitis C virus subtype 1b; details: Hepatitis C virus
[11] = Inhibition of NS5A in HCV genotype 2a assessed as replicon RNA levels by real time PCR based cell based assay; design: species or system Hepatitis C virus subtype 2a; details: Hepatitis C virus
[12] = Cmax in Sprague-Dawley rat at 5 mg/kg, po; assay type: ADME, organism-based; design: dose 5 mg/kg, route oral; details: in vivo
[13] = Oral bioavailability in Sprague-Dawley rat at 5 mg/kg; assay type: ADME, organism-based; details: in vivo
[14] = Half life in Sprague-Dawley rat at 5 mg/kg po or 2 mg/kg iv; assay type: ADME, organism-based; details: in vivo
[15] = AUC in Sprague-Dawley rat at 5 mg/kg, po; assay type: ADME, organism-based; details: in vivo
[16] = Clearance in Sprague-Dawley rat at 5 mg/kg po or 2 mg/kg iv; assay type: ADME, organism-based; details: in vivo
[17] = Inhibition of NS5A in HCV genotype 4a; design: species or system Hepatitis C virus subtype 4a
[18] = Inhibition of NS5A in HCV genotype 2a; design: species or system Hepatitis C virus subtype 2a
Nonstructural protein 5A [19] = molecular target: Nonstructural protein 5A (Hepatitis C virus, UniProt Q5L478, L31V); assay: Inhibition of NS5A in HCV genotype 1a L31V mutant; design: species or system Hepatitis C virus subtype 1a
[20] = Inhibition of NS5A in HCV genotype 1a; design: species or system Hepatitis C virus subtype 1a
[21] = Inhibition of NS5A in HCV genotype 2b; design: species or system Hepatitis C virus subtype 2b
[22] = Inhibition of NS5A in HCV genotype 3a; design: species or system Hepatitis C virus subtype 3a
[23] = Inhibition of NS5A in HCV genotype 1b; design: species or system Hepatitis C virus subtype 1b
Nonstructural protein 5A [24] = molecular target: Nonstructural protein 5A (Hepatitis C virus, UniProt Q5L478, Y93H); assay: Inhibition of NS5A in HCV genotype 1a Y93H mutant; design: species or system Hepatitis C virus subtype 1a
Nonstructural protein 5A (Hepatitis C virus, UniProt Q5L478, Y93H), sequence (Q5L478 entry or part of it Y93H): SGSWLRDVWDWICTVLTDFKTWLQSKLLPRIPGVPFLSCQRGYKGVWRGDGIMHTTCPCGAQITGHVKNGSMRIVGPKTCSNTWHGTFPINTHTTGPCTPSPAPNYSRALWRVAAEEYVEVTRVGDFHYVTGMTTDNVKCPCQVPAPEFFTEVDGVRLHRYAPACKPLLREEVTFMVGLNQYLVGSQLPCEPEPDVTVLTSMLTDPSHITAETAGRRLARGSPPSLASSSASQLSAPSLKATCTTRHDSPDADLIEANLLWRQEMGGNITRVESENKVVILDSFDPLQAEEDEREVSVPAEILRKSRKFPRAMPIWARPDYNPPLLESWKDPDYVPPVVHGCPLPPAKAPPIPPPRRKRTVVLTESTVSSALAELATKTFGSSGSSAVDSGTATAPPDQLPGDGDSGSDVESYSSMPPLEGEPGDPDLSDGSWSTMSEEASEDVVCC

Row | Compound | EC50 [1] [nM] | EC50 [2] [nM] | EC50 [5] [pM] | EC50 [9] [nM] | EC50 [10] [pM] | EC50 [11] [pM] | also measured
1 | COC(=O)N[C@H](C(=O)N1CCC[C@H]1c1ncc(-c2ccc3c(c2)OC(C)n2c-3cc3cc(-c4cnc([C@@H]5CCCN5C(=O)[C@@H](NC(=O)OC)C(C)C)[nH]4)ccc32)[nH]1)C(C)C (some centres not stated) | 23 | 0.09 | 3 | 0.03 | 3 | 7 | bioavailability [3]: 26%; half-life [4]: 132 min; Cmax [6]: 990 nM; clearance [7]: 8.5 mL/min/kg; AUC [8]: 6.2 µM·h
2 | COC(=O)N[C@H](C(=O)N1CCC[C@H]1c1nc(-c2ccc3c(c2)O[C@@H](c2ccccc2)n2c-3cc3cc(-c4c[nH]c([C@@H]5CCCN5C(=O)[C@@H](NC(=O)OC)C(C)C)n4)ccc32)c[nH]1)C(C)C [ELBASVIR] | – | – | – | – | – | – | EC50 [17]: 0.003 nM; EC50 [18]: 3 pM; EC50 (Nonstructural protein 5A [19]): 0.5 nM; EC50 [20]: 4 pM; EC50 [21]: 3 nM; EC50 [22]: 0.02 nM; EC50 [23]: 3 pM; EC50 (Nonstructural protein 5A [24]): 2 nM
3 | COC(=O)N[C@H](C(=O)N1CCC[C@H]1c1ncc(-c2ccc3c(c2)OC(C2CCCCC2)n2c-3cc3cc(-c4cnc([C@@H]5CCCN5C(=O)[C@@H](NC(=O)OC)C(C)C)[nH]4)ccc32)[nH]1)C(C)C (some centres not stated) | 1 | 0.8 | 5 | 0.04 | 2 | 3 | –
4 | COC(=O)N[C@H](C(=O)N1CCC[C@H]1c1ncc(-c2ccc3c(c2)OCn2c-3cc3cc(-c4cnc([C@@H]5CCCN5C(=O)[C@@H](NC(=O)OC)C(C)C)[nH]4)ccc32)[nH]1)C(C)C | – | – | – | – | – | – | EC50 [17]: 0.06 nM; EC50 [18]: 7 pM; EC50 (Nonstructural protein 5A [19]): 3 nM; EC50 [20]: 10 pM; EC50 [21]: 31 nM; EC50 [22]: 0.5 nM; EC50 [23]: 8 pM; EC50 (Nonstructural protein 5A [24]): 100 nM

Second part, led by results:

Row | EC50 [1] [nM] | EC50 [2] [nM] | EC50 [5] [pM] | EC50 [9] [nM] | EC50 [10] [pM] | EC50 [11] [pM] | Compound | also measured
5 | 1 | 0.1 | 3 | 0.02 | 4 | 2 | COC(=O)N[C@H](C(=O)N1CCC[C@H]1c1ncc(-c2ccc3c(c2)OC(C2CC2)n2c-3cc3cc(-c4cnc([C@@H]5CCCN5C(=O)[C@@H](NC(=O)OC)C(C)C)[nH]4)ccc32)[nH]1)C(C)C (some centres not stated) | Cmax [12]: 740 nM; bioavailability [13]: 27%; half-life [14]: 204 min; AUC [15]: 4.4 µM·h; clearance [16]: 6.2 mL/min/kg
6 | 2 | 0.3 | 2 | 0.005 | 3 | 70 | COC(=O)N[C@H](C(=O)N1CCC[C@H]1c1ncc(-c2ccc3c(c2)OC(C2CCCC2)n2c-3cc3cc(-c4cnc([C@@H]5CCCN5C(=O)[C@@H](NC(=O)OC)C(C)C)[nH]4)ccc32)[nH]1)C(C)C (some centres not stated) | –
7 | 5 | 0.3 | 6 | 0.02 | 2 | 20 | COC(=O)N[C@H](C(=O)N1CCC[C@H]1c1ncc(-c2ccc3c(c2)OC(CC(F)(F)F)n2c-3cc3cc(-c4cnc([C@@H]5CCCN5C(=O)[C@@H](NC(=O)OC)C(C)C)[nH]4)ccc32)[nH]1)C(C)C (mixture of isomers) | –
8 | 2 | 0.3 | 2 | 0.04 | 2 | 1 | CCC1Oc2cc(-c3cnc([C@@H]4CCCN4C(=O)[C@@H](NC(=O)OC)C(C)C)[nH]3)ccc2-c2cc3cc(-c4cnc([C@@H]5CCCN5C(=O)[C@@H](NC(=O)OC)C(C)C)[nH]4)ccc3n21 (some centres not stated) | Cmax [12]: 1220 nM; bioavailability [13]: 43%; half-life [14]: 216 min; AUC [15]: 8.4 µM·h; clearance [16]: 5.2 mL/min/kg

From ChEMBL document CHEMBL3826948, “Alkyl substituted aminal derivatives of HCV NS5A inhibitor MK-8742” (Bioorg Med Chem Lett, 2016)
